Experimental data as given in US11427528B2 (Zhejiang University of Technology, priority 2016, dated 2022).
Entries after “also recorded” stand apart in the source; their conditions may differ. Read-outs that look alike come from different tables or passages of the source.

Experiments:
[1] = Stability experiment, high humidity (XRPD); type: physicochemical; details: 90±5% RH, 25° C., open petri dish, XRPD compared with 0th day
Method: (§1) The instrument used for collecting X-ray powder diffraction (XRPD) patterns is Bruker D8 Advance diffractometer. The samples are tested at room temperature under the following conditions: 2θ scan range, 3-40°; step size, 0.02°/step; speed, 0.2 s/step.
(§2) They were placed at 4500±500 lx light exposure, and 90±5% RH humidity chamber at 25° C., respectively. The XRPD results of the 5th day and 10th day were compared with that of the 0th day.

[2] = Stability experiment, light exposure (XRPD); type: physicochemical; details: 4500±500 lx, 25° C., open petri dish, XRPD compared with 0th day
Method: as §1, §2

[3] = Storage stability at room temperature; type: physicochemical; details: 3 months
[4] = Grinding test in ball mill (XRPD); type: physicochemical; details: 20 Hz, 100 mg, XRPD compared with unground sample
Method: as §1

[5] = cited from earlier work

Compound	Crystalline form after high humidity for 10 days [1]	Crystalline form after light exposure for 10 days [2]	Stability at room temperature [3]	Crystalline form after grinding for 10 min [4]	Form change at room temperature ([5]; in one day at room temperature)	Form change at room temperature ([5]; after two days at room temperature)	Form change after mechanical grinding ([5]; mechanical grinding)
CC(C)OC(=O)C(C)(C)Oc1ccc(C(=O)c2ccc(Cl)cc2)cc1 [Form IV]	does not change its crystalline form; also recorded: Form IV	does not change its crystalline form; also recorded: Form IV	remains stable	does not change its crystalline form; also recorded: Form IV	–	–	–
CC(C)OC(=O)C(C)(C)Oc1ccc(C(=O)c2ccc(Cl)cc2)cc1 [Form III]	–	–	–	–	transformed to Form II and Form I	–	–
CC(C)OC(=O)C(C)(C)Oc1ccc(C(=O)c2ccc(Cl)cc2)cc1 [Form II]	–	–	–	–	–	transformed to Form I	transformed to Form I
CC(C)OC(=O)C(C)(C)Oc1ccc(C(=O)c2ccc(Cl)cc2)cc1 [Form I, reference compound]	Form I	Form I	–	Form I	–	–	–
